Several values for one entry are separate records, joined by “and”; a condition that tells them apart may be missing. Equal entries are not always repeated.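 Where inhibition never reached the appropriate level, the endpoint shown equals the highest concentration tested. Otherwise, values were interpolated linearly from a five-concentration, 48-hour dose response in 96-well plates. GI50 is the concentration that inhibits growth by half.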 Activity calls are given as the source filed them. No stated cut-off is given here; in the data, active = GI50 up to about 1.1 µM and inactive = higher. Peptide text beside a SMILES is read from it. * marks the point of attachment. Boc = CC(C)(C)OC(=O)*
How the values were obtained:
Assay in all cases: growth of human tumour cells (NCI), 48 h
NCI/ADR-RES = test system: NCI/ADR-RES
HCC 2998 = test system: HCC 2998
MDA-MB-435 = test system: MDA-MB-435
T47D = test system: T47D
NCI-H23 = test system: NCI-H23
UO-31 = test system: UO-31
SK-MEL-2 = test system: SK-MEL-2
UACC-257 = test system: UACC-257
DU-145 = test system: DU-145
Malme-3M = test system: Malme-3M
SNB-19 = test system: SNB-19
EKVX = test system: EKVX
KM12 = test system: KM12
CCRF-CEM = test system: CCRF-CEM
PC-3 = test system: PC-3
UACC-62 = test system: UACC-62
NCI-H522 = test system: NCI-H522
HT-29 = test system: HT-29
SW-620 = test system: SW-620
RXF 393 = test system: RXF 393

Compound	GI50 (NCI/ADR-RES)	GI50 (HCC 2998)	GI50 (MDA-MB-435)	GI50 (T47D)	GI50 (NCI-H23)	GI50 (UO-31)	GI50 (SK-MEL-2)	GI50 (UACC-257)	GI50 (DU-145)	GI50 (Malme-3M)	GI50 (SNB-19)	GI50 (EKVX)	GI50 (KM12)	GI50 (CCRF-CEM)	GI50 (PC-3)	GI50 (UACC-62)	GI50 (NCI-H522)	GI50 (HT-29)	GI50 (SW-620)	GI50 (RXF 393)
C=CCOC(=O)CCCCCCCCCCCCCCCOC(=O)c1c(CCC[C@@H](C)O[Si](C)(C)C(C)(C)C)nc([O-])[n+]2c1CC[C@H]2CC1(CC/C=C\[C@H](CC)O[Si](C(C)C)(C(C)C)C(C)C)OCCO1	> 100 µM (inactive)	73.8 µM (inactive)	> 100 µM (inactive)	> 100 µM (inactive)	> 100 µM (inactive)	28.4 µM (inactive)	37.2 µM (inactive)	> 100 µM (inactive)	> 100 µM (inactive)	> 100 µM (inactive)	80.2 µM (inactive)	> 100 µM (inactive)	85.9 µM (inactive)	14.4 µM (inactive)	> 100 µM (inactive)	30.4 µM (inactive)	> 100 µM (inactive)			
O=C(/C=C/c1ccc(Cl)cc1)c1nc2ccccc2[nH]1	42.5 µM (inactive)	12.8 µM (inactive)	12.2 µM (inactive)	5.78 µM (inactive)	48.8 µM (inactive)	10.9 µM (inactive)	> 100 µM (inactive)	29 µM (inactive)	12.3 µM (inactive)	> 100 µM (inactive)	34.6 µM (inactive)	25.7 µM (inactive)	1.6 µM (inactive)	3.54 µM (inactive)	19.9 µM (inactive)	35.9 µM (inactive)	28.2 µM (inactive)	21.5 µM (inactive)	13.4 µM (inactive)	
COc1cccc(-c2cc(O)c3cc(C)cnc3n2)c1	0.0295 µM (active)	1.51 µM (inactive)	0.0122 µM (active)	> 100 µM (inactive)	0.203 µM (active)	1.26 µM (inactive)	0.0293 µM (active)	> 100 µM (inactive)	0.308 µM (active)		0.0667 µM (active)		0.0885 µM (active)	0.0366 µM (active)	0.0467 µM (active)	0.0258 µM (active)	0.0389 µM (active)	0.0318 µM (active)	0.06 µM (active)	0.0211 µM (active)
CNC(=O)C1CCCN1C(=O)C(Cc1c[nH]cn1)NC(=O)C1CCC(=O)N1 (stereo not drawn)	> 100 µM (inactive)	> 100 µM (inactive)	> 100 µM (inactive)	> 100 µM (inactive)	> 100 µM (inactive)	> 100 µM (inactive)			> 100 µM (inactive)	> 100 µM (inactive)	> 100 µM (inactive)	> 100 µM (inactive)	> 100 µM (inactive)	> 100 µM (inactive)	> 100 µM (inactive)	> 100 µM (inactive)	> 100 µM (inactive)	> 100 µM (inactive)	> 100 µM (inactive)	> 100 µM (inactive)
CN(C)c1c(C2CC(O)C(CO)O2)c(=O)c1=O (stereo not drawn)	> 100 µM (inactive)	> 100 µM (inactive)	> 100 µM (inactive)	> 100 µM (inactive)		> 100 µM (inactive)	> 100 µM (inactive)	> 100 µM (inactive)	> 100 µM (inactive)		> 100 µM (inactive)	> 100 µM (inactive)	> 100 µM (inactive)		> 100 µM (inactive)	> 100 µM (inactive)	> 100 µM (inactive)	> 100 µM (inactive)	> 100 µM (inactive)	
O=C(NN=C1CCCCC1)Nc1ccccc1Cl	24.1 µM (inactive)	59.3 µM (inactive)	16.6 µM (inactive)	29.5 µM (inactive)	57.8 µM (inactive)	61.9 µM (inactive)	28.6 µM (inactive)	78.7 µM (inactive)	86.1 µM (inactive)	40.3 µM (inactive)	64.3 µM (inactive)	52.8 µM (inactive)	38.3 µM (inactive)	42 µM (inactive)	> 100 µM (inactive)	36.8 µM (inactive)	23.1 µM (inactive)	36.3 µM (inactive)	43.8 µM (inactive)	
Nc1[nH]c(=S)[nH]c(=O)c1/N=N/c1c(Br)cc(S(N)(=O)=O)cc1Br	> 100 µM (inactive)		> 100 µM (inactive)	> 100 µM (inactive)	> 100 µM (inactive)	> 100 µM (inactive)	> 100 µM (inactive)	> 100 µM (inactive)	> 100 µM (inactive)	> 100 µM (inactive)	> 100 µM (inactive)	> 100 µM (inactive)	> 100 µM (inactive)	> 100 µM (inactive)	> 100 µM (inactive)	> 100 µM (inactive)	> 100 µM (inactive)	> 100 µM (inactive)	> 100 µM (inactive)	> 100 µM (inactive)
CSCCC(NC(=O)C(CC(C)C)NC(=O)CNC(=O)OC(C)(C)C)C(=O)N(C)C (stereo not drawn) (Boc-Gly-Leu-Met-NMe2; configuration not given here)	> 100 µM (inactive)		> 100 µM (inactive)	> 100 µM (inactive)	> 100 µM (inactive)	> 100 µM (inactive)	> 100 µM (inactive)	> 100 µM (inactive)	> 100 µM (inactive)	87.7 µM (inactive)	> 100 µM (inactive)	> 100 µM (inactive)	> 100 µM (inactive)	> 100 µM (inactive)	> 100 µM (inactive)	> 100 µM (inactive)	> 100 µM (inactive)	> 100 µM (inactive)	> 100 µM (inactive)	> 100 µM (inactive)
N#C[C@@]12CCCC(=O)[C@@H]1[C@H]1CCC[C@H]12	22.5 µM (inactive)	15.1 µM (inactive)	17.1 µM (inactive)	20.9 µM (inactive)	16.1 µM (inactive)	16.1 µM (inactive)	16.9 µM (inactive)	20.2 µM (inactive)	14.9 µM (inactive)	13.6 µM (inactive)	21.7 µM (inactive)	13.2 µM (inactive)	13.3 µM (inactive)	16.6 µM (inactive)	13.9 µM (inactive)	22.6 µM (inactive)		19.7 µM (inactive)	20.6 µM (inactive)	
Cc1nnc(N)nc1/C=C/c1c(O)ccc2ccccc12	30.8 µM (inactive)	19.1 µM (inactive)	24.7 µM (inactive)	36.7 µM (inactive)	24.8 µM (inactive)	18.8 µM (inactive)	15.2 µM (inactive)	32.2 µM (inactive)	52.8 µM (inactive)		27 µM (inactive)	13.9 µM (inactive)	34.5 µM (inactive)	15.5 µM (inactive)	22.8 µM (inactive)	21.5 µM (inactive)		27 µM (inactive)	31.6 µM (inactive)	15.6 µM (inactive)
NC(=S)N/N=C1\CCc2ccccc2C1	> 100 µM (inactive)	> 100 µM (inactive)	> 100 µM (inactive)	13 µM (inactive)	> 100 µM (inactive)	> 100 µM (inactive)		> 100 µM (inactive)	> 100 µM (inactive)	> 100 µM (inactive)	> 100 µM (inactive)	27 µM (inactive)	> 100 µM (inactive)	70.8 µM (inactive)	> 100 µM (inactive)	55 µM (inactive)	55.3 µM (inactive)	> 100 µM (inactive)	> 100 µM (inactive)	80.4 µM (inactive)
CC(=O)OCC1OC(SC2=NC(=O)CS2)C(OC(C)=O)C(OC(C)=O)C1OC(C)=O (stereo not drawn)	> 100 µM (inactive)	> 100 µM (inactive)	> 100 µM (inactive)	> 100 µM (inactive)	> 100 µM (inactive)	> 100 µM (inactive)		> 100 µM (inactive)	> 100 µM (inactive)	> 100 µM (inactive)	> 100 µM (inactive)		> 100 µM (inactive)	31.5 µM (inactive) and 32.3 µM (inactive)	84.1 µM (inactive) and 95.5 µM (inactive)	> 100 µM (inactive) and 76.6 µM (inactive)	47 µM (inactive) and 78.9 µM (inactive)	> 100 µM (inactive)	> 100 µM (inactive)	> 100 µM (inactive)
c1ccc2c(c1)c1c(n2CCOCCN2CCCC2)CCCC1	19 µM (inactive)	16.6 µM (inactive)	18.9 µM (inactive)	28.7 µM (inactive)	22.6 µM (inactive)	12.8 µM (inactive)	16.4 µM (inactive)	22.4 µM (inactive)	30.3 µM (inactive)	17.1 µM (inactive)		25.9 µM (inactive)	> 10 µM (inactive)	20.9 µM (inactive)	18.6 µM (inactive)	18.6 µM (inactive)		20 µM (inactive)	16.2 µM (inactive)	
O=C1N(c2ccccc2)C2(c3ccccc3)CC3CCCC13S2 (stereo not drawn)	40.8 µM (inactive)		33.3 µM (inactive)	31.3 µM (inactive)	50.5 µM (inactive)	78.9 µM (inactive)	14.4 µM (inactive)	16.7 µM (inactive)	> 100 µM (inactive)	40.9 µM (inactive)	> 100 µM (inactive)	71.8 µM (inactive)	54.8 µM (inactive)	43.3 µM (inactive)	21.9 µM (inactive)	77.8 µM (inactive)	23.7 µM (inactive)	42.8 µM (inactive)	50.7 µM (inactive)	> 100 µM (inactive)
COC(CNC(=O)C(C)NC(=O)/C=C/c1ccccc1)OC (stereo not drawn)	> 100 µM (inactive)		> 100 µM (inactive)	> 100 µM (inactive)	> 100 µM (inactive)	> 100 µM (inactive)	> 100 µM (inactive)	> 100 µM (inactive)	> 100 µM (inactive)	> 100 µM (inactive)	> 100 µM (inactive)	> 100 µM (inactive)	> 100 µM (inactive)	> 100 µM (inactive)	> 100 µM (inactive)	> 100 µM (inactive)	62.1 µM (inactive)	> 100 µM (inactive)	> 100 µM (inactive)	> 100 µM (inactive)
